According to PubChem BioAssay AID179 (DTP/NCI, 2004):
Active and inactive are the calls of the source.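 Rule for the calls: active = compounds giving half or more protection of infected cells from virus-caused growth loss, again on retest; inactive = the rest.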

System: CEM cells HIV-1 protection, formazan growth assay
Assay: NCI AIDS Antiviral Assay
Conditions: for IC50: measured here: growth of uninfected CEM cells
Summary of the method: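 Category rules: moderately active means at least 50% protection on retest, and confirmed active means 100% protection reproducibly. The underlying data came from a formazan growth assay in HIV-1-infected CEM cells.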

## CC(=O)Nc1cc(OCC(=O)O)ccc1S(=O)(=O)c1ccc(OCC(=O)O)cc1NC(C)=O
  EC50: > 200 µM
  IC50: > 200 µM

## COc1ccccc1N1C(Cl)C(=O)C1c1c[nH]c2ccccc12 (configuration not stated)
  EC50: > 151 µM
  IC50: 129 µM

## C/C(C=O)=C\c1cccc(F)c1
  EC50: > 158 µM
  IC50: > 158 µM

## CC(C)C1OCC(CO)CO1 (configuration not stated)
  EC50: > 200 µM
  IC50: > 200 µM

## O=[N+]([O-])c1cccc(/C=N/NC2=CS(=O)(=O)C=C2)c1
  EC50: > 67.6 µM
  IC50: > 67.6 µM

## C/C(C=O)=N\Nc1cc(C)c2ccccc2n1
  EC50: > 200 µM
  IC50: 9.55 µM

## CC(=O)Oc1ccc2cc(Oc3ccc(Cl)c(Cl)c3)c(=O)oc2c1
  EC50: > 200 µM
  IC50: 85.1 µM

## COc1cc(/C=C2/SC(c3ccccc3)N(c3ccccc3Cl)C2=O)cc(OC)c1OC (configuration not stated)
  EC50: > 200 µM
  IC50: 43.7 µM

## CCOC(=O)C(C)(C)Oc1ccc(/C=C/C(=O)c2ccc(Cl)cc2)cc1
  EC50: > 10 µM
  IC50: > 10 µM

## COc1cc(NC=O)c2c(c1)SC(c1ccccc1)C(=O)N2 (configuration not stated)
  EC50: > 200 µM
  IC50: 56.2 µM

## COc1ccc(N=C/C=C/c2ccccc2)cc1
  EC50: > 21.9 µM
  IC50: > 21.9 µM

## CC1=NN(C(=O)CC(=O)Nc2ccccc2Cl)C(=O)C1N=Nc1ccc(C(=O)O)cc1 (configuration not stated)
  EC50: > 200 µM
  IC50: 81.3 µM

## Cc1c2ccccc2nc(CSc2n[nH]c(=S)s2)[n+]1[O-]
  EC50: > 200 µM
  IC50: > 200 µM

## CCCCCCCCOC(=O)CC(C(=O)OCCCCCCCC)S(=O)(=O)O (configuration not stated)
  EC50: > 200 µM
  IC50: 117 µM

## O=C1C2=C(C(=O)c3ccccc31)C(O)(S(=O)(=O)O)C(O)(S(=O)(=O)O)C1N=CC=CC21 (configuration not stated)
  EC50: > 200 µM
  IC50: 3.39 µM

## CCOC(=O)C(C(=O)OCC)C1c2ccccc2-c2ccccc21
  EC50: > 200 µM
  IC50: 77.6 µM

## CC1(C)CC(=O)c2c([nH]c(=S)c(C#N)c2-c2ccc(Br)cc2)C1
  EC50: > 200 µM
  IC50: 43.7 µM

## Nc1cc2cccc[n+]2c2cc(Cl)ccc12
  EC50: > 20 µM
  IC50: 1.86 µM

## CC(=O)N1N=C(c2ccc3ccccc3c2O)CC1c1ccc(N(C)C)cc1 (configuration not stated)
  EC50: > 50.1 µM
  IC50: > 50.1 µM

## CCCCCCCCCCCCCCCCN1CCCCCC1=O
  EC50: > 77.6 µM
  IC50: > 77.6 µM

## CCCCOC(=O)C1CC2OC2CC1C(=O)OCCCCOC(=O)C1CC2OC2CC1C(=O)OCCCC (configuration not stated)
  EC50: > 200 µM
  IC50: 21.9 µM

## CCCCNCCCC.[C-]#[O+].[C-]#[O+].[C-]#[O+].[C-]#[O+].[C-]#[O+].[Cr]
  EC50: > 200 µM
  IC50: 56.2 µM

## O=C(Cc1ccccc1)NN1C(=O)/C(=C\c2ccccc2)SC1=Nc1ccccc1
  EC50: > 120 µM
  IC50: > 120 µM

## CCCCC(C(=O)C(=O)NC1C2CC3CC(C2)CC1C3)C(=O)C(C)C (configuration not stated)
  EC50: > 74.1 µM
  IC50: > 74.1 µM

## O=P(O)(O)CN1CCNCCN(CP(=O)(O)O)CCNCC1
  EC50: > 200 µM
  IC50: 10 µM

## Nc1ncnc2c1ncn2C1C=CC(CP(=O)(O)O)C1 (configuration not stated)
  EC50: > 200 µM
  IC50: > 200 µM

## CCS(=O)(=O)c1c2cc(OC)ccc2nc2ccc(OC)cc12
  EC50: > 200 µM
  IC50: > 200 µM

## Cc1cc2c(c3[nH]c4ccccc4c13)C(=O)c1ccccc1C2=O
  EC50: > 3.39 µM
  IC50: > 3.39 µM

## COc1ccc2cc3[n+](cc2c1O)CCc1cc2c(cc1-3)OCO2
  EC50: > 347 µM
  IC50: 6.03 µM

## C/C=C(\CCCCN1C(=O)CCC1O)[Si](C)(C)C (configuration not stated)
  outcome: inactive

## CC1OC(OC2C(CO)OC(O[C@H]3CC[C@@]4(C)C(=CC[C@H]5[C@@H]6C[C@@H]7O[C@](O)(CC[C@H](CO)COC8OC(CO)C(O)C(O)C8O)[C@@H](C)[C@@H]7[C@@]6(C)CC[C@@H]54)C3)C(OC3OC(C)C(O)C(O)C3O)C2O)C(O)C(O)C1O (some centres not stated)
  EC50: > 200 µM
  IC50: > 200 µM

## Cn1cc(NC(=O)Nc2cc(C(=O)Nc3ccc4cc(S(=O)(=O)O)cc(S(=O)(=O)O)c4c3)n(C)c2)cc1C(=O)Nc1ccc2cc(S(=O)(=O)O)cc(S(=O)(=O)O)c2c1
  EC50: 79.4 µM
  IC50: > 200 µM

## CCCCCCCCCCCCCCCC(=O)Nc1ccn(C2CCC(COP(=O)(O)OCC3CCC(n4cnc5c(=O)[nH]cnc54)O3)O2)c(=O)n1 (configuration not stated)
  EC50: 0.759 µM
  IC50: > 100 µM

## Cc1csc(=S)n1OC(=O)NC1CCCCC1
  EC50: > 912 µM
  IC50: 45.7 µM

## C=CC(C)(O)CNc1ccccc1 (configuration not stated)
  EC50: > 204 µM
  IC50: > 204 µM

## CC(O)C1=CCC2c3[nH]c4ccccc4c3CCN2C1 (configuration not stated)
  EC50: > 23.4 µM
  IC50: > 23.4 µM

## c1ccc2c(c1)ccc1c2nc2c3ccccc3[nH]n12
  EC50: 0.245 µM
  IC50: 10.7 µM

## COC1(OC)CC2C(=O)N(Cc3ccccc3)C1CC2S(=O)(=O)c1ccccc1 (configuration not stated)
  outcome: inactive

## O=C1NC2(CCCCC2)C(=O)N1CCN(CCCl)CCCl
  EC50: > 372 µM
  IC50: 269 µM

## OCC1CCCC1O (configuration not stated)
  outcome: inactive

## S=C(c1c[nH]c2ccccc12)N1CCN(Cc2ccccc2)CC1
  EC50: > 200 µM
  IC50: 37.2 µM

## O=C(O)c1n[nH][nH]c1=S
  EC50: 126 µM
  IC50: > 200 µM

## C[C@]12CCC(=O)C=C1CC[C@@H]1C2CC[C@]2(C)c3nn(-c4ccccc4)nc3CC12 (some centres not stated)
  outcome: inactive

## O=c1cc(SCc2ccccc2Cl)[nH]c(=O)[nH]1
  EC50: > 115 µM
  IC50: > 115 µM

## Cc1cc(N=Nc2c(N)c(C)cc(N=Nc3ccc(C(N)=O)cc3)c2N)ccc1N=Nc1cc(C(=O)O)c(O)c(S(=O)(=O)O)c1
  EC50: 8.91 µM
  IC50: > 200 µM

## N.N.N.N.N.NC(=O)[O-].[Co+3].[I-]
  outcome: inactive

## N#CC(=C=[N-])[n+]1ccc(Cl)cc1
  outcome: inactive

## CN1N=C(c2ccncc2)OC1c1ccc(C(F)(F)F)cc1 (configuration not stated)
  EC50: > 200 µM
  IC50: 132 µM

## O=c1c(OS(=O)(=O)O)c(-c2ccc(OS(=O)(=O)O)c(OS(=O)(=O)O)c2)oc2cc(OS(=O)(=O)O)cc(OS(=O)(=O)O)c12
  EC50: > 100 µM
  IC50: 51.3 µM

## NC(=O)N/N=C1/CCN2CCCc3cccc1c32
  EC50: > 200 µM
  IC50: > 200 µM

## [N-]=[N+]=C1C(=O)NC(=O)N2C3OC(CO[C@@H]12)C(O)C3O (some centres not stated)
  EC50: > 200 µM
  IC50: > 200 µM

## CC1(C)COC(c2cccc(C(=O)c3ccccc3)c2)=N1
  EC50: > 200 µM
  IC50: 57.5 µM

## COC(=O)C1C23CC(=O)CC1(c1ccc4c(c1)OCO4)C2NC3=O (configuration not stated)
  EC50: > 398 µM
  IC50: > 398 µM

## CCCCOP(=O)(OCCCC)c1ccccc1
  EC50: 0.0631 µM
  IC50: > 200 µM

## CN1C(=O)c2cnc3ccccc3c2C1(O)c1ccccc1 (configuration not stated)
  EC50: > 200 µM
  IC50: > 200 µM

## COc1ccccc1/C=C/C(=O)/C=C/c1ccccc1O
  EC50: > 79.4 µM
  IC50: 1.15 µM

## COc1cc(NCC(C#N)C#N)ccc1N=Nc1ccc([N+](=O)[O-])cc1
  EC50: > 38.9 µM
  IC50: > 38.9 µM

## Oc1cc2ccccc2c2sc(-c3ccccc3)c(-c3ccccc3)[n+]12
  EC50: > 200 µM
  IC50: 17.8 µM

## C#CCNC(CCCN=C(N)N)C(=O)O (configuration not stated)
  EC50: > 200 µM
  IC50: > 200 µM

## CC(=O)c1ccc(NC(=S)NN)cc1
  EC50: > 174 µM
  outcome: inactive
  IC50: 148 µM

## CCCCCCCC(=O)OCC1OC(n2cc(F)c(=O)[nH]c2=O)C(NC(=O)OCc2ccccc2)C(O)C1O (configuration not stated)
  EC50: > 64.6 µM
  IC50: 56.2 µM

## COc1ccc(C)cc1-c1ccc(-c2cc(C)ccc2OC)o1
  EC50: > 72.4 µM
  IC50: 58.9 µM

## CC(SC(=O)Nc1ccc(N=Nc2ccccc2)cc1)C(=O)O (configuration not stated)
  outcome: inactive

## Cc1cc(=O)[nH]c(NNC(C#N)c2ccc(O)cc2)n1 (configuration not stated)
  EC50: > 182 µM
  IC50: > 182 µM

## CC1(C)Nc2cc3c(cc2-n2cccc21)oc1ccccc13
  EC50: > 200 µM
  IC50: 9.12 µM

## CC(CO)[C@H]1OC(=O)C=C2[C@@]13O[C@@H]3[C@H]1OC(=O)[C@@]3(C)[C@H]4O[C@H]4C[C@@]2(C)[C@@H]13 (some centres not stated)
  EC50: > 2 µM
  IC50: 0.776 µM

## NS(=O)(=O)c1ccc(NC(=S)/N=C\C(C(=O)c2ccccc2)=C(\O)c2ccccc2)cc1
  EC50: > 200 µM
  IC50: 105 µM

## O=S(=O)(O/C1=C/CCCCCC1)C(F)(F)F
  EC50: > 100 µM
  IC50: > 100 µM

## CCC12C=CCN3CC[C@]4(C(=C(C(=O)OC)[C@@H]1Nc1ccn(C5OC(COC(C)=O)C(OC(C)=O)C5OC(C)=O)c(=O)n1)Nc1ccccc14)C32 (some centres not stated)
  EC50: > 26.9 µM
  IC50: 3.63 µM

## O=C(O)C(SC(=S)c1ccc(C(=S)SC(C(=O)O)c2ccccc2)cc1)c1ccccc1 (configuration not stated)
  outcome: inactive

## O=S1(=O)CC#CC[C@@H](CO)[C@@H](CO)CC#CC1
  outcome: inactive

## COc1cc(N(C)C)c(OC)cc1/C=C1\Cc2ccccc2C1=O
  EC50: > 57.5 µM
  IC50: 46.8 µM

## Nc1nc(SCc2ccccn2)c2ncn(C3CCCC3)c2n1
  EC50: > 200 µM
  IC50: 110 µM

## Cc1nc(N)nc(N)c1N1CCN(c2ccc(C#N)cc2)CC1
  EC50: > 100 µM
  IC50: > 100 µM

## Cc1cccc2c(N)c3cccc(C(=O)NCC[N+]4(Cc5ccc([N+](=O)[O-])cc5)CCOCC4)c3nc12
  EC50: > 200 µM
  IC50: 30.2 µM

## CNC(=O)N(C1CCCCC1)C1CCCCC1
  EC50: > 200 µM
  IC50: 110 µM

## CCOc1ccc(N=Nc2c(-c3ccccc3)nn(C(=O)CC(=O)Nc3ccccc3Cl)c2-c2ccccc2)cc1
  EC50: > 33.1 µM
  IC50: > 33.1 µM

## C/C=C1\CN2CCc3c([nH]c4ccccc34)C2C=C1CCO (configuration not stated)
  EC50: > 170 µM
  IC50: > 170 µM

## O=C1/C(=C/c2cccc(F)c2)Cc2ccccc21
  EC50: > 30.2 µM
  IC50: > 30.2 µM

## Oc1cc(O)cc(-c2c(O)cc(O)cc2O)c1
  EC50: > 200 µM
  IC50: 145 µM

## Cc1noc(NS(=O)(=O)c2ccc(Nc3nc(CC(=O)Nc4ccccc4)cs3)cc2)c1C
  EC50: > 200 µM
  IC50: 28.2 µM

## Cc1nc2cccc([N+](=O)[O-])c2c(NCCCN(C)C)c1C
  EC50: > 200 µM
  IC50: 40.7 µM

## Oc1ccc(C2(c3ccc(O)cc3)CCCC2)cc1
  EC50: > 200 µM
  IC50: 30.9 µM

## Cc1nc2ccccc2c(=O)n1NC(=S)Nc1ccc(Cl)cc1
  EC50: > 39.8 µM
  IC50: > 39.8 µM

## O=C(NCCO)c1cc2c(cn1)[nH]c1ccccc12
  outcome: inactive

## CCCC(=O)n1[nH]c(=O)n(C(C)(C)C)c1=O
  EC50: > 200 µM
  IC50: > 200 µM

## CN1CCN(C(=S)N(C(=O)c2ccc(Cl)cc2)C2CCCCC2)CC1
  EC50: > 95.5 µM
  IC50: 45.7 µM

## COc1ccc2c(c1)OC[C@@H]1c3ccc(OCc4ccccc4)cc3O[C@H]21
  EC50: 46.8 µM
  IC50: > 200 µM
